Activity calls are given as the source filed them.
How the values were obtained:
[1] = inhibitors of HIV Env-driven cell fusion, dose response, cherry-pick (AID 652057); format: functional, cell-based
[2] = ZM109 Env clade C HIV-1 fusion inhibitors, dose response, HeLa effector, CEM target cells, luciferase, cherry-pick (AID 652058); format: functional, cell-based
[3] = off-target signal loss in HeLa-CEM21 co-culture – HeLa F-luc CTL cells, cherry-picked, counter-screen for HIV-1 Env fusion inhibitor project, dose response (AID 652040); format: functional, cell-based;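 note: potency for signal decrease marking cytotoxic or nonspecific inhibition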
[4] = inhibitors of clade B AD8 Env fusion, dose response, cell-based, cherry-pick (AID 652062); format: functional;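 note: luciferase signal from cell-cell fusion driven by HIV-1 clade B AD8 Env; potency is for inhibitors of fusion seen as a drop in luminescence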
Paired box protein Pax-8 = Paired box protein Pax-8 (Homo sapiens, UniProt Q06710); assay: inhibitors of PAX8-driven TPO luciferase reporter, dose response, RMG-I cells, cherry-pick (AID 687027); format: functional, cell-based;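 note: luciferase reporter driven by Pax8 target thyroperoxidase promoter measured by SteadyGlo luminescence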
[5] = non-specific cell cytotoxicity, dose response, cytotoxicity control for PAX8 inhibitor project, plate reader, dry powder samples (AID 743021); format: functional, cell-based
Caspase-3 = target: T1, Caspase-3 (Homo sapiens, UniProt P42574); format: functional;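 note: Dose-response selectivity test against caspase-3 for candidate inhibitors of sentrin-specific proteases (SENPs)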
T1 sequence (P42574 whole entry): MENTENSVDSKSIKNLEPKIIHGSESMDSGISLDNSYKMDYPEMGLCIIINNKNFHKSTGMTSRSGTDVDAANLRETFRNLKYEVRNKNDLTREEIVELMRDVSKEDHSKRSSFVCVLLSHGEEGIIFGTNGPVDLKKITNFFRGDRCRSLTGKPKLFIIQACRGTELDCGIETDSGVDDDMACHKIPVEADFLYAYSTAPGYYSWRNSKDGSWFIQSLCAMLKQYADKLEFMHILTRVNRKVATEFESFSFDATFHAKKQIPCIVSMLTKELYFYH

[6] = target: T2, Sentrin-specific protease 7 (Homo sapiens, UniProt Q9BQF6); format: functional;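 note: Luminescence-based dose-response confirmation of ultra-high-throughput screening hits, measuring inhibition of SENP7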
T2 sequence (Q9BQF6 whole entry): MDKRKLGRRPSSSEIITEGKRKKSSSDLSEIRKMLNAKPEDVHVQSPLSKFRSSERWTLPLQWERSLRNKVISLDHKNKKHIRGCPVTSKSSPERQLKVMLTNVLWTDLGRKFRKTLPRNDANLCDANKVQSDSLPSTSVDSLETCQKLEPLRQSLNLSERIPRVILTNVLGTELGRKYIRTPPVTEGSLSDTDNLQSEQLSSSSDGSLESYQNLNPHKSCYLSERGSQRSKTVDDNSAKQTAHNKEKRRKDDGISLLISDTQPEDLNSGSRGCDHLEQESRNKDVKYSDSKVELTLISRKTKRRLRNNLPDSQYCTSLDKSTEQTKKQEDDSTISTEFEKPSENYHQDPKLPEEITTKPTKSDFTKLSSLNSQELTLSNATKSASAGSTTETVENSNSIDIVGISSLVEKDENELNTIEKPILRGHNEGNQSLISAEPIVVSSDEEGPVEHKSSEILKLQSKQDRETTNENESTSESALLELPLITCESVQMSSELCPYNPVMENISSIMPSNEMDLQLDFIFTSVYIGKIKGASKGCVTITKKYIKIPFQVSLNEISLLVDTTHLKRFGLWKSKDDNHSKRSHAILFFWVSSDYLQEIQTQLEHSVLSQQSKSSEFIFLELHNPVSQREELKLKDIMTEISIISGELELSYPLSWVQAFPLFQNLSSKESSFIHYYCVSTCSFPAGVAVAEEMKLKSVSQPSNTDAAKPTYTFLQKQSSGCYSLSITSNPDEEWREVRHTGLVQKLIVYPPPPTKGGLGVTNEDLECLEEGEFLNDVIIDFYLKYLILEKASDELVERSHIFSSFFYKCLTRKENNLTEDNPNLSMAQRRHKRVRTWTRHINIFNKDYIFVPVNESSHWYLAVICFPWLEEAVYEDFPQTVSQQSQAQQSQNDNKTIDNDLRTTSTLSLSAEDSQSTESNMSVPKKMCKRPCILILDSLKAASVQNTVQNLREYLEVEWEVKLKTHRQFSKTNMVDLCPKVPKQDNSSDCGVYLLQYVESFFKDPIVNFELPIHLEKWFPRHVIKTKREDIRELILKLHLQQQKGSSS

[7] = target: T3, Sentrin-specific protease 6 (Homo sapiens, UniProt Q9GZR1); format: functional;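 note: Luminescence-based dose-response confirmatory assay of SENP6 inhibition, following up an ultra-high-throughput screen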
T3 sequence (Q9GZR1 whole entry): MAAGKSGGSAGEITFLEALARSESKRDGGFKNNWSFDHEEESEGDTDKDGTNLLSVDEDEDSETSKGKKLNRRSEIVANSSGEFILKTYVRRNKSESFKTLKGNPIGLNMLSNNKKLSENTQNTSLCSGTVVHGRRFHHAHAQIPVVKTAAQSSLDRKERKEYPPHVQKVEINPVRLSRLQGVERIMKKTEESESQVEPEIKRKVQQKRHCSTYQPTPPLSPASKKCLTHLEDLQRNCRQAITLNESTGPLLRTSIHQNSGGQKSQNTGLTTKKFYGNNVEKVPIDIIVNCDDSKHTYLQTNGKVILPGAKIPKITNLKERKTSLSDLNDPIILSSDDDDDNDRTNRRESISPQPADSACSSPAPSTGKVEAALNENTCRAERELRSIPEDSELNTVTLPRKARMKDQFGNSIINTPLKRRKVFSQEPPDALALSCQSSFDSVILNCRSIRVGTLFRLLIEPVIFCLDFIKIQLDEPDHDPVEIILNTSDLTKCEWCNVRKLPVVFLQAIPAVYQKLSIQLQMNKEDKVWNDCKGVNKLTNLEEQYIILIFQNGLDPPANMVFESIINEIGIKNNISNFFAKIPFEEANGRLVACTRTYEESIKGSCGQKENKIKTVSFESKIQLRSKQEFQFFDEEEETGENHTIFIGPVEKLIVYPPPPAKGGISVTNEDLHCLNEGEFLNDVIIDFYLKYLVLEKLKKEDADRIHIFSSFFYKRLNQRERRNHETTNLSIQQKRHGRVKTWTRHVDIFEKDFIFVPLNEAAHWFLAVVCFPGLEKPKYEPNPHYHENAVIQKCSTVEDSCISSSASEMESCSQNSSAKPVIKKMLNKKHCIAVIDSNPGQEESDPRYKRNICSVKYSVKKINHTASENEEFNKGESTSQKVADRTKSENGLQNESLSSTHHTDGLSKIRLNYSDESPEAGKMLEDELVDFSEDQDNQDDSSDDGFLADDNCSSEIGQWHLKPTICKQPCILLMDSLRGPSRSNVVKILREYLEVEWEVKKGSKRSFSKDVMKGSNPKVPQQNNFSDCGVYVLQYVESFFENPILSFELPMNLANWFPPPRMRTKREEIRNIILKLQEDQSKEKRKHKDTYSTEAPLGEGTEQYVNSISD

[8] = target: T4, Sentrin-specific protease 8 (Homo sapiens, UniProt Q96LD8); format: functional;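 note: luminescence read-out of SENP8 inhibition, dose-response confirmation following an ultra-high-throughput screen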
T4 sequence (Q96LD8 whole entry): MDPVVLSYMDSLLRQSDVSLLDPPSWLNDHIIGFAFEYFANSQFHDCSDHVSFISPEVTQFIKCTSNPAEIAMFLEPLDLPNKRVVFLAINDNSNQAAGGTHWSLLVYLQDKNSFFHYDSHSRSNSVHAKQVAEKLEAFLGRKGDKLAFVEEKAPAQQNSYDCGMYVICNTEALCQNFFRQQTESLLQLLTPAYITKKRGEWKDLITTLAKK

[9] = target: Peroxisome proliferator-activated receptor gamma/Nuclear receptor coactivator 1 (Homo sapiens, UniProt P37231); assay: (§1) TR-FRET dose response biochemical High Throughput Screening assay for agonists of the steroid receptor coactivator 1 (SRC-1) recruitment by the peroxisome proliferator-activated receptor gamma (PPAR gamma): non-selective agonists. [Related pubchem assays (depositor defined):AID1300, AID1808, AID504735, AID631]; format: protein assay
[10] = target: Peroxisome proliferator-activated receptor gamma/Nuclear receptor coactivator 3 (Homo sapiens, UniProt P37231); assay: as §1, with “3 (SRC-3)” for “1 (SRC-1)”, “assays: 1301 (Confirmation screen.), 1048 (Primary screen.)]” for “assays (depositor defined):AID1300, AID1808, AID504735, AID631]”; format: functional
[11] = target: Peroxisome proliferator-activated receptor gamma/Nuclear receptor coactivator 2 (Homo sapiens, UniProt P37231); assay: TR-FRET dose response biochemical High Throughput Screening assay for agonists of the steroid receptor coactivator 2 (SRC-2) recruitment by the peroxisome proliferator-activated receptor gamma (PPAR gamma): non-selective agonists. [Related pubchem assays: 1297, 1032 ]; format: functional
Major prion protein = Major prion protein (Homo sapiens, UniProt P04156); format: functional, cell-based
[12] = target: T5, Apoptotic protease-activating factor 1 (Homo sapiens, UniProt O14727); format: functional
T5 sequence (O14727 whole entry): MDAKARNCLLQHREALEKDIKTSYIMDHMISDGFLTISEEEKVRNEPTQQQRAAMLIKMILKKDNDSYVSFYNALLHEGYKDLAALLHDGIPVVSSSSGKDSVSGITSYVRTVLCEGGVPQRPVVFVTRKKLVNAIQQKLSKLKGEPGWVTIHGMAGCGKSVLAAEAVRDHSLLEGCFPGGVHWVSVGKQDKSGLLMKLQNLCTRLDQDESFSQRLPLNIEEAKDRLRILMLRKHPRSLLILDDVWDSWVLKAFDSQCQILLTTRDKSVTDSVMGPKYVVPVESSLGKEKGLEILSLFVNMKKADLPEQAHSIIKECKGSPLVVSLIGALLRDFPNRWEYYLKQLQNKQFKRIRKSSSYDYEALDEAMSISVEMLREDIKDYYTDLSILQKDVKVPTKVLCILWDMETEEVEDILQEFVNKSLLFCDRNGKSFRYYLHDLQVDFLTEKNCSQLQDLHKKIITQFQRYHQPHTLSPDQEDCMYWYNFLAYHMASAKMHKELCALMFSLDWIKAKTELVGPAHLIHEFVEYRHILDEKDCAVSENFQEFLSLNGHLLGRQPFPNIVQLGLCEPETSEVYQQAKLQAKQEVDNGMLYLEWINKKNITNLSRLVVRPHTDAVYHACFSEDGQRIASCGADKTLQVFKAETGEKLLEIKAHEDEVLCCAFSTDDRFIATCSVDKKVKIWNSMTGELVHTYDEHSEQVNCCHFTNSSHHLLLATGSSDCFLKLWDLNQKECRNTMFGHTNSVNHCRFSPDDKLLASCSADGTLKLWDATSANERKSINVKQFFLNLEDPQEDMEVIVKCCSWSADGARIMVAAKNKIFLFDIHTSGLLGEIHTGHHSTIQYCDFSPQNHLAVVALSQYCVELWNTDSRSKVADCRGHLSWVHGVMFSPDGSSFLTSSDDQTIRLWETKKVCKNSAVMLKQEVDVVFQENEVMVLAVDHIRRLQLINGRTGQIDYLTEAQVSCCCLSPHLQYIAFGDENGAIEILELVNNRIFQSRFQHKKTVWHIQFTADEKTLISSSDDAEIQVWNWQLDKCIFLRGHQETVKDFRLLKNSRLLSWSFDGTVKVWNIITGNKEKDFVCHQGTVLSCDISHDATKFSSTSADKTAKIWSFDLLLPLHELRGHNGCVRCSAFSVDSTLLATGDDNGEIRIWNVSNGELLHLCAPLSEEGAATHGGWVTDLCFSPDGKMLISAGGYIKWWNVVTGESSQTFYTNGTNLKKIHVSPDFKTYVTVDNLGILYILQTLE

COc1cc(CNCc2ccc(OC)c3ccccc23)cc(OC)c1OC
AC50 [1]: 23.8 µM (active)
AC50 [2]: 31.8 µM (active)
AC50 [3]: > 70 µM (inactive)
AC50 [4]: 51 µM (active)

COc1cccc(N(C(=O)c2ccco2)c2nc(-c3sc(NC(=O)c4ccco4)nc3C)cs2)c1
AC50 (Paired box protein Pax-8): 2.1 µM (active)
AC50 [5]: 62 µM (active)

CCOC(=O)c1cc(-c2cc3ccccc3o2)[nH]n1
IC50 (Caspase-3): 15.4 µM (active)
IC50 [6]: 5.55 µM (active)
IC50 [7]: 21.6 µM (active)
IC50 [8]: 34.8 µM (active)

CCCCNC(=O)CSc1nc(CCC)nc2ccccc12
EC50 [9]: > 79.4 µM (inactive)
EC50 [10]: > 79.4 µM (not active)
EC50 [11]: > 79.4 µM (not active)
IC50 (Major prion protein): 14.7 µM (inactive)
IC50 (cells): > 138 µM (inactive)

Clc1ccccc1OCc1nn2c(-c3ccncc3)nnc2s1
IC50 [12]: 8.4 µM (active)

COc1ccc(Oc2ccc(/C=C/C(=O)c3cccc(OC)c3)cc2[N+](=O)[O-])cc1
AC50 (Paired box protein Pax-8): 14.5 µM (active)
AC50 [5]: 54.3 µM (active)

O=C(O)c1ccc(NC2=C(N3CCOCC3)C(=O)c3ccccc3C2=O)cc1
IC50 [12]: 35.8 µM (active)

CC(C)CCN(C(=O)c1csnn1)C(C(=O)NC1CCCC1)c1ccc(F)cc1 (centres undefined)
AC50 [1]: 4.72 µM (active)
AC50 [2]: 7.51 µM (active)
AC50 [3]: 5.56 µM (active)
AC50 [4]: 5.93 µM (active)

COC(=O)C1=C(C)N(Cc2ccc(C(F)(F)F)cc2)C(NCc2ccccc2)=NC1c1cccc(Cl)c1 (centres undefined)
AC50 (Paired box protein Pax-8): 12.3 µM (active)
AC50 [5]: 20.9 µM (active)

CC(C)OCCCNC1=C(Cl)C(=O)c2ccccc2C1=O
IC50 (Caspase-3): 6.38 µM (active)
IC50 [6]: 19.4 µM (active)
IC50 [7]: 8.48 µM (active)
IC50 [8]: 25.7 µM (active)

Reference: ChEMBL document CHEMBL1201862, “PubChem BioAssay data set” (2004)
